Data taken from US8067189B2, “Methods for determining sensitivity to vascular endothelial growth factor receptor-2 modulators by measuring the level of collagen type IV” (Bristol-Myers Squibb Company, priority 2005, dated 2011).

Columns and labels:
[1] = system: VEGFR-2 co-expressed biomarkers (mRNA levels in xenograft tumors); test: Gene expression profiling (Affymetrix mouse 430A arrays) of un-treated vs treated xenograft tumors; format: in vivo
Procedure: Tumors were propagated in nude mice as subcutaneous (sc) transplants using L2987 and HCT-116 cancer cell lines. Tumor passage occurred approximately every two to four weeks. Tumors were then allowed to grow to the pre-determined size window (100-200 mm^3, tumors outside the range were excluded) and animals were evenly distributed to various treatment and control groups. Animals were treated with the example VEGFR-2 inhibitor (100 mg/kg 1 qd×14 days). Treated animals were checked daily for treatment related toxicity/mortality. Each group of animals was weighed before the initiation of treatment (Wt1) and then again following the last treatment dose (Wt2). The difference in body weight (Wt2−Wt1) provided a measure of treatment-related toxicity. Tumor response was determined by measurement of tumors with a caliper twice a week, until the tumors reached a predetermined target size. Animals that were distributed to various treatment and control groups during the study were eventually sacrificed to obtain tumor and blood samples for genomic and protein analysis.
The colon tumor samples obtained from cancer patients were snap frozen in liquid nitrogen within 20 minutes of resection and stored thereafter at −80° C. The mouse xenograft tumor samples were split into two halves. One half was mixed in a vial of 10% formalin to be used for IHC and the other half was mixed in 1.0 ml of RNAlater™ RNA Stabilization Reagent (Ambion, Inc., Austin, Tex.) held at room temperature for 30 minutes then stored at −80° C. Total RNA was extracted from the tumor samples using the RNeasy Kit™ (Qiagen, Valencia Calif.). At least 1 μg total RNA with a 260/280 ratio ≧1.8 by spectrophotometry (DU640 UV, Beckman Coulter, Fullerton, Calif.) was required for transcriptional profiling. Briefly, the tumor samples were homogenized in a lysis-binding solution supplied by Qiagen. An equal volume of ethanol was mixed into each sample, the mixture was passed through the filter cartridges provided, and the rest of the extraction protocol was followed (Ambion). RNA yield and quality were assessed on a standard 1% agarose gel. A ratio 28 s/18 s RNA in the range of 1.5 to 2.5 indicated high quality RNA that is free of degradation. RNA samples were stored at −80° C.
Transcriptional profiling was performed on the RNA obtained from the tumor samples. The Affymetrix GeneChip system (Affymetrix, Santa Clara, Calif.) was used for hybridization and scanning of the human U133A and mouse 430A arrays. Data were preprocessed using the MAS 5.0 software. Generation of cRNA followed a standard T7 amplification protocol. Total RNA was reverse-transcribed with SuperScript II (Gibco, Carlsbad, Calif.) in the presence of T7-(dT)24 primer to generate first strand cDNA. A second-strand cDNA synthesis was performed in the presence of DNA Polymerase I, DNA ligase, and RNase H (Gibco). The resulting double-stranded cDNA was blunt-ended using T4 DNA polymerase. This double-stranded cDNA was then transcribed into cRNA in the presence of biotin-ribonucleotides using the BioArray High Yield RNA transcript labeling kit (Enzo Life Sciences, Farmingdale, N.Y.). The amplified, biotin-labeled cRNA was purified using Qiagen RNeasy columns (Qiagen Sciences), quantified and fragmented at 94° C. for 35 minutes in the presence of fragmentation buffer (1×). Fragmented cRNA was hybridized to the Affymetrix U113A and 430A arrays overnight at 42° C. The arrays were then placed in the fluidics stations for staining and washing as recommended by Affymetrix protocols. The chips were scanned and raw intensity values were generated for each probe on the arrays.
The 94 co-expressed VEGFR-2 genes identified from human cancers profiled on U133A arrays were used to identify their corresponding mouse homolog from mouse xenografts tumors profiled on mouse 430A arrays. […]

[2] = system: L2987 tumor xenograft; test: In vivo antitumor testing, L2987 tumor xenograft model; parameters: species or system mouse; details: L2987, nude mice, 100 mg/kg 1 qd×26
Procedure: In this example, the Table 2 biomarkers were identified using mouse xenograft tumor models that were treated with the example VEGFR-2 inhibitor.
Tumors were propagated in nude mice as subcutaneous (sc) transplants using tumor fragments obtained from donor mice. Tumor passage occurred approximately every two to four weeks. Tumors were then allowed to grow to the pre-determined size window (usually between 100-200 mg, tumors outside the range were excluded) and animals were evenly distributed to various treatment and control groups. Animals were treated with the example VEGFR-2 inhibitor (100 mg/kg 1 qd×26). Treated animals were checked daily for treatment related toxicity/mortality. […] Tumor response was determined by measurement of tumors with a caliper twice a week, until the tumors reached a predetermined target size of 1 gm or became necrotic. […]
Antitumor activity was determined in terms of primary tumor growth inhibition. This was determined in two ways: (i) calculating the relative median tumor weight (MTW) of treated (T) and control (C) mice at various time points (effects were expressed as % T/C); and (ii) calculating the tumor growth delay (T−C value), defined as the difference in time (days) required for the treated tumors (T) to reach a predetermined target size compared to those of the control group (C). […]

In the case of `Cc1cc2c(F)c(Oc3ncnn4cc(OC[C@@H](C)OC(=O)[C@H](C)N)c(C)c34)ccc2[nH]1` [example VEGFR-2 inhibitor, [(1R),2S]-2-Aminopropionic acid 2-[4-(4-fluoro-2-methyl-1H-indol-5-yloxy)-5-methylpyrrolo[2,1-f][1,2,4]triazin-6-yloxy]-1-methylethyl ester], the “fold-change mRNA, Tie1” value ([1]; mouse 430A probe 1416238_at, 100 mg/kg 1 qd×14 days, t-test P 0.00103262) is reported as 11, the “fold-change mRNA, endoglin (Eng)” value ([1]; mouse 430A probe 1417271_a_at, 100 mg/kg 1 qd×14 days, t-test P 0.021873085) is reported as 2 and the “fold-change mRNA, Prg1” value ([1]; mouse 430A probe 1417426_at, 100 mg/kg 1 qd×14 days, t-test P 0.034821585) is reported as 2. For the same molecule, the “fold-change mRNA, Eltd1” value ([1]; mouse 430A probe 1418059_at, 100 mg/kg 1 qd×14 days, t-test P 0.018655985) was 2, the “direction of change in mRNA levels, Tek” value ([1]; mouse 430A probe 1418788_at) was “no” and the “fold-change mRNA, Tek” value ([1]; mouse 430A probe 1418788_at, 100 mg/kg 1 qd×14 days, t-test P 0.047098006) was 1. The “direction of change in mRNA levels, S100a8” value ([1]; mouse 430A probe 1419394_s_at) was “no”, the “fold-change mRNA, S100a8” value ([1]; mouse 430A probe 1419394_s_at, 100 mg/kg 1 qd×14 days, t-test P 0.040857487) was 1 and the “fold-change mRNA, C1qr1 (Ly68)” value ([1]; mouse 430A probe 1419589_at, 100 mg/kg 1 qd×14 days, t-test P 0.000005) was 5. For the same molecule, the “fold-change mRNA, Agtrl1” value ([1]; mouse 430A probe 1423037_at, 100 mg/kg 1 qd×14 days, t-test P 5.54812E−04) was 4, the “fold-change mRNA, nidogen 2 (Nid2)” value ([1]; mouse 430A probe 1423516_a_at, 100 mg/kg 1 qd×14 days, t-test P 0.024126268) was 3 and the “direction of change in mRNA levels, Col16a1” value ([1]; mouse 430A probe 1427986_a_at) was “no”. The “fold-change mRNA, Col4a1” value ([1]; mouse 430A probe 1427986_a_at, 100 mg/kg 1 qd×14 days, t-test P 0.000014) was 4, the “fold-change mRNA, Col16a1” value ([1]; mouse 430A probe 1427986_a_at, 100 mg/kg 1 qd×14 days, t-test P 0.014896833) was 1 and the “fold-change mRNA, VE-Cadherin (Cdh5)” value ([1]; mouse 430A probe 1433956_at, 100 mg/kg 1 qd×14 days, t-test P 0.001154369) was 2. The “direction of change in mRNA levels, Pkig” value ([1]; mouse 430A probe 1434820_s_at) was “no”, the “fold-change mRNA, Pkig” value ([1]; mouse 430A probe 1434820_s_at, 100 mg/kg 1 qd×14 days, t-test P 0.032286798) was 1 and the “fold-change mRNA, Agtrl1” value ([1]; mouse 430A probe 1438651_a_at, 100 mg/kg 1 qd×14 days, t-test P 0.026038828) was 2. For the same molecule, the “fold-change mRNA, Gng11” value ([1]; mouse 430A probe 1448942_at, 100 mg/kg 1 qd×14 days, t-test P 0.001326667) was 2, the “direction of change in mRNA levels, Cav1” value ([1]; mouse 430A probe 1449145_a_at) was “no” and the “fold-change mRNA, Cav1” value ([1]; mouse 430A probe 1449145_a_at, 100 mg/kg 1 qd×14 days, t-test P 2.72030E−04) was 1. For the same molecule, the “direction of change in mRNA levels, Pde1a” value ([1]; mouse 430A probe 1449298_a_at) was “no”, the “fold-change mRNA, Pde1a” value ([1]; mouse 430A probe 1449298_a_at, 100 mg/kg 1 qd×14 days, t-test P 0.025570996) was 1 and the “fold-change mRNA, Col4a1” value ([1]; mouse 430A probe 1452035_at, 100 mg/kg 1 qd×14 days, t-test P 0.000018) was 6. For the same molecule, the “efficacy in mouse xenograft tumor model” value [2] was “highly responsive”.
